Data on 2 compounds can be found in PMC11053151, “Anti-inflammatory and anti-diabetic properties of indanone derivative isolated from Fernandoa adenophylla in vitro and in silico studies” (Scientific Reports, 2024).

Test [1] addresses T1, α-amylase (porcine pancreatic amylase) (Sus scrofa, UniProt P00690).
T1 construct: gene AMY2
T1 sequence (P00690 16-511): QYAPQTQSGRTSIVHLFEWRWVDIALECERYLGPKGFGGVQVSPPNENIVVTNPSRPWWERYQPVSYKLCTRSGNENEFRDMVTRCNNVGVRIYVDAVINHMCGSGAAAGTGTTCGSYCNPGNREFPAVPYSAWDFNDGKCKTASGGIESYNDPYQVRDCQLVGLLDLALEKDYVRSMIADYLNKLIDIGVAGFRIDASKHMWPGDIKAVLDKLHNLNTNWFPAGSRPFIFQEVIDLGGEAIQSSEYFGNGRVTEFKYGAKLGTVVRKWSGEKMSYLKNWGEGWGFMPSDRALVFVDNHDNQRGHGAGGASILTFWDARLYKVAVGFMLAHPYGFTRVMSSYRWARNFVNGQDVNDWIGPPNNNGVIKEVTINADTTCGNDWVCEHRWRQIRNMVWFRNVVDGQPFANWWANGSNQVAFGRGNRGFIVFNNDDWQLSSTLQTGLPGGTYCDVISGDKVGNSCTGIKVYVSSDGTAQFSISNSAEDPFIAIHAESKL
Put plainly: starch hydrolysis / dinitrosalicylate colorimetric alpha-amylase inhibition assay; percent inhibition at […] µg. In kind it is biochemical.

Test [2] addresses T1, α-amylase (porcine pancreatic amylase). Put plainly: starch hydrolysis / dinitrosalicylate colorimetric alpha-amylase inhibition assay. In kind it is biochemical.

For `C[C@H]1O[C@H](O[C@H]2[C@H](O)[C@@H](O)[C@@H](O[C@H]3[C@H](O)[C@@H](O)C(O)O[C@@H]3CO)O[C@@H]2CO)[C@H](O)[C@@H](O)[C@@H]1N[C@H]1C=C(CO)[C@@H](O)[C@H](O)[C@H]1O` (some centres unmarked) [acarbose], the “%” value in test [1] turned out to be 87.08 ± 1.328%. In test [2], `COC(=O)[C@@]1(O)c2ccccc2C(=O)[C@]1(O)CC=C(C)C` [indanone derivative, methyl (1R trans, 2S trans)-1,2-dihydroxy-2-(3-methylbut-2-en-1-yl)-3-oxo-2,3-dihydro-1H-indene-1-carboxylate] displayed a half-maximal inhibitory concentration (IC50) of 46.4 µM.
